# Measured values taken from patent US8158389B2, “Products and methods for in vivo secretion of monatin” (priority 2005, dated 2012).
# System: E. coli MG1655 ΔAcrAB
# Assay: Monatin excretion with 2.5 mM sodium decanoate, E. coli MG1655 ΔAcrAB strains with pUC19, robA, ramA or baeR (24, 30, 48 h)
# Format: cell-based, Escherichia coli
# Method: Conditions for the treatments included 250 rpm agitation throughout and 37° C. up to induction, then, 30° C. following induction. At 0.30-0.50 OD600 nm, induction of the plasmid genes was initiated. At induction, 1.0 mM IPTG, 0.5% L-arabinose, 0.5 mM pyridoxine hydrochloride, and 0.2 mLs of Balch's vitamins were added. Additions of 10 g/L L-tryptophan, 10 g/L sodium pyruvate, 0.04 mM pyridoxal-5′-phosphate (“PLP”) and 0.2% Tween® 20 (polyoxyethylene 20-sorbitan monolaurate) were made 3 hours following induction. Some treatments included 2.5 mM sodium decanoate addition at 3 hours following induction.
# Conditions for the treatments included 250 rpm agitation throughout and 37° C. up to induction, then, 30° C. following induction. At an OD600 nm between 0.30-0.50, induction of the plasmid genes was initiated. At induction, 1.0 mM IPTG, 0.5% L-arabinose, 0.5 mM pyridoxine hydrochloride, and 0.2 mLs of Balch's vitamins were added. Additions of 10 g/L L-tryptophan, 10 g/L sodium pyruvate, 0.04 mM pyridoxal-5′-phosphate (“PLP”) and 0.2% Tween® 20 (polyoxyethylene 20-sorbitan monolaurate) were made 3 hours following induction. Some treatments included 2.5 mM sodium decanoate addition at 3 hours following induction.
# Conditions for the treatments included 250 rpm agitation throughout and 37° C. up to induction, then, 30° C. following induction. At 0.35-0.38 OD600 nm, induction of the plasmid genes was initiated. At induction, 1.0 mM IPTG, 0.5% L-arabinose, 0.5 mM pyridoxine hydrochloride, and 0.2 mLs of Balch's vitamins were added. Additions of 10 g/L L-tryptophan, 10 g/L sodium pyruvate, 0.04 mM pyridoxal-5′-phosphate (“PLP”) and 0.2% Tween® 20 (polyoxyethylene 20-sorbitan monolaurate) were made 3.5 hours following induction. At 24 hours after inoculation, another 10 g/L increment of sodium pyruvate was added to each flask. Some treatments included 2.5 mM sodium decanoate addition at 3.5 hours following induction.
# [1] = ΔAcrAB::aspC proA pProNde del robA pUC19, n = 2
# [2] = ΔAcrAB::aspC proA pProNde del, ramA pUC19, n = 2
# [3] = ΔAcrAB::aspC proA pProNdedel, pUC19 (control), n = 2
# [4] = ΔacrAB AspC ProA pProNde del BaeR pUC19, n = 2
structure (smiles),measurement,setting,value
CCCCCCCCCC(=O)[O-].[Na+] [sodium decanoate],"Monatin/dcw, 24 hours",[1],45.7 mg/g
same,"Monatin/dcw, 30 hours",[1],58.6 mg/g
same,"Monatin/dcw, 48 hours",[1],81.7 mg/g
same,"Monatin/dcw, 24 hours",[2],32.3 mg/g
same,"Monatin/dcw, 30 hours",[2],41.7 mg/g
same,"Monatin/dcw, 48 hours",[2],61.1 mg/g
same,"Monatin/dcw, 24 hours",[3],10.7 mg/g
same,"Monatin/dcw, 30 hours",[3],29.7 mg/g
same,"Monatin/dcw, 48 hours",[3],39.3 mg/g
same,"Mean monatin per dry cell weight, 24 hours",[4],34.4 mg/g
same,"Mean monatin per dry cell weight, 30 hours",[4],85.0 mg/g
same,"Mean monatin per dry cell weight, 48 hours",[4],137.3 mg/g
